Reference: patent US11141413B2, “Method of treating renal cell carcinoma using N-(4-(6,7-dimethoxyquinolin-4-yloxy)phenyl)-N′-(4-fluorophenyl)cyclopropane-1,1-dicarboxamide, (2S)-hydroxybutanedioate” (Exelixis, Inc., priority 2016, dated 2021)
Where “and” joins values, the source holds several entries; their conditions need not be identical. Identical values can stand only once.

System: advanced renal cell carcinoma (RCC)
Experiment: METEOR (Study 1) randomized phase 3 trial, cabozantinib vs everolimus: PFS, OS, ORR
Format: in vivo, human
Conditions: for ORR (95% CI), IRC / ORR (95% CI), Investigator assessed / Progressive disease, IRC / Progressive disease, Investigator assessed / Stable disease, IRC / Stable disease, Investigator assessed / Confirmed ORR (95% CI), IRC / Confirmed ORR (95% CI), Investigator assessed / Confirmed responses (95% CI), IRC / Confirmed responses (95% CI), Investigator assessed: RECIST 1.1; for PFS event: all randomized
[1] = Patients With High Tumor Burden
[2] = Pts with Bone and Visceral Metastases
[3] = prior therapy subgroup Anti-PD-1/PD-L1
[4] = prior therapy subgroup Pazopanib Only
[5] = prior therapy subgroup Sunitinib Only

SMILES: CO[C@H]1C[C@@H]2CC[C@@H](C)[C@@](O)(O2)C(=O)C(=O)N2CCCC[C@H]2C(=O)O[C@H]([C@H](C)C[C@@H]2CC[C@@H](OCCO)[C@H](OC)C2)CC(=O)[C@H](C)/C=C(\C)[C@@H](O)[C@@H](OC)C(=O)[C@H](C)C[C@H](C)/C=C/C=C/C=C/1C [everolimus]
- Kaplan-Meier estimate of % of patients alive (6 Months landmark): 81% (76%, 85%)
- Kaplan-Meier estimate of % of patients alive (12 Months landmark): 63% and 63% (58%, 78%)
- Kaplan-Meier estimate of % of patients alive (18 Months landmark): 47%
- Kaplan-Meier estimate of % of patients alive (18 Months landmark, listed as Everolimus): 47% (41%, 52%)
- Kaplan-Meier estimate of % of patients alive (24 Months landmark): 31% (23%, 39%)
- ORR (95% CI), IRC (Asia Pacific): 2 (0-11) %
- ORR (95% CI), Investigator assessed (Asia Pacific): 4 (1-15) %
- Progressive disease, IRC (Asia Pacific): 28%
- Progressive disease, Investigator assessed (Asia Pacific): 26%
- Stable disease, IRC (Asia Pacific): 60%
- Stable disease, Investigator assessed (Asia Pacific): 60%
- ORR (95% CI), IRC (Europe): 4 (1-8) %
- ORR (95% CI), Investigator assessed (Europe): 4 (1-8) %
- Progressive disease, IRC (Europe): 24%
- Progressive disease, Investigator assessed (Europe): 25%
- Stable disease, IRC (Europe): 65%
- Stable disease, Investigator assessed (Europe): 66%
- Median OS (ITT, all 658 randomized, cutoff Dec. 31, 2015): 16.5 months
- Median OS (ITT, all 658 randomized, cutoff Dec. 31, 2015, listed as Everolimus): 16.5 (14.7, 18.8) months
- Objective response rate (confirmed, partial responses only) per IRC (ITT, all 658 randomized, cutoff May 22, 2015): 3%
- Objective response rate (confirmed, partial responses only) per IRC (ITT, all 658 randomized, cutoff May 22, 2015, listed as eve): 3%
- ORR (95% CI), IRC (North America): 2 (1-7) %
- ORR (95% CI), Investigator assessed (North America): 3 (1-8) %
- Progressive disease, IRC (North America): 30%
- Progressive disease, Investigator assessed (North America): 29%
- Stable disease, IRC (North America): 59%
- Stable disease, Investigator assessed (North America): 62%
- Confirmed ORR (95% CI), IRC [1]: 0%
- Confirmed ORR (95% CI), Investigator assessed [1]: 1 (0-4) %
- Progressive disease, IRC [1]: 26%
- Progressive disease, Investigator assessed [1]: 27%
- Stable disease, IRC [1]: 64%
- Stable disease, Investigator assessed [1]: 62%
- Confirmed ORR (95% CI), IRC (Patients With Low Tumor Burden): 7 (3-12) %
- Confirmed ORR (95% CI), Investigator assessed (Patients With Low Tumor Burden): 7 (4-13) %
- Progressive disease, IRC (Patients With Low Tumor Burden): 28%
- Progressive disease, Investigator assessed (Patients With Low Tumor Burden): 27%
- Stable disease, IRC (Patients With Low Tumor Burden): 60%
- Stable disease, Investigator assessed (Patients With Low Tumor Burden): 64%
- Confirmed responses (95% CI), IRC (Pts with Bone Metastases): 0%
- Confirmed responses (95% CI), Investigator assessed (Pts with Bone Metastases): 0%
- Progressive disease, IRC (Pts with Bone Metastases): 37%
- Progressive disease, Investigator assessed (Pts with Bone Metastases): 26%
- Stable disease, IRC (Pts with Bone Metastases): 54%
- Stable disease, Investigator assessed (Pts with Bone Metastases): 63%
- Confirmed responses (95% CI), IRC [2]: 0%
- Confirmed responses (95% CI), Investigator assessed [2]: 0%
- Progressive disease, IRC [2]: 44%
- Progressive disease, Investigator assessed [2]: 29%
- Stable disease, IRC [2]: 44%
- Stable disease, Investigator assessed [2]: 59%
- Confirmed responses (95% CI), IRC (Pts without Bone Metastases): 4 (2-7) %
- Confirmed responses (95% CI), Investigator assessed (Pts without Bone Metastases): 5 (3-9) %
- Progressive disease, IRC (Pts without Bone Metastases): 24%
- Progressive disease, Investigator assessed (Pts without Bone Metastases): 26%
- Stable disease, IRC (Pts without Bone Metastases): 64%
- Stable disease, Investigator assessed (Pts without Bone Metastases): 63%
- Objective response rate per investigator (all 658 randomized, cutoff May 22, 2015): 4%
- Median duration of PFS (all 658 randomized, per IRC, cutoff May 22, 2015): 3.9 months
- Median duration of PFS (all 658 randomized, per IRC, cutoff May 22, 2015, listed as Everolimus): 3.9 (3.7-5.1) months and 3.9 months
- Median duration of PFS (all 658 randomized, per investigator, cutoff May 22, 2015): 5.1 (3.9-5.5) months
- PFS event (per IRC, cutoff May 22, 2015): 214 (66) ^ n (%)
- PFS event (per investigator, cutoff May 22, 2015): 233 (71) ^ n (%)
- Median PFS (first 375 randomized, per independent radiology review committee (IRC)): 3.8 months
- Median PFS (first 375 randomized, per independent radiology review committee (IRC), listed as Everolimus): 3.8 (3.7, 5.4) months
- Median PFS (first 375 randomized, per independent radiology review committee (IRC), listed as eve): 3.8 months
- Median OS (high MET tumor expression): 15.2 months
- Median OS (high tumor burden): 12.2 mo
- Patients with reduction in measurable tumor lesion size (in vivo): 48%
- Median OS (low MET tumor expression): 18.4 months
- Median OS (low tumor burden): 19.3 mo
- Median OS (patients enrolled in Canada): 12.8 mo
- Median PFS (patients enrolled in Canada): 3.7 mo
- ORR (patients enrolled in Canada): 0%
- Median PFS (patients with bone and visceral metastases): 1.9 mo
- Median PFS (patients with bone metastases): 2.7 mo
- Best overall response: confirmed complete response (per IRC): 0 n
- Best overall response: confirmed partial response (per IRC): 11 n
- Best overall response: confirmed complete response (per investigator): 0 n
- Confirmed ORR (95% CI), tumor response by IRC [3]: 0%
- Confirmed ORR (95% CI), tumor response by investigator [3]: 0%
- Progressive disease, tumor response by IRC [3]: 29%
- Progressive disease, tumor response by investigator [3]: 14%
- Stable disease, tumor response by IRC [3]: 64%
- Stable disease, tumor response by investigator [3]: 86%
- Confirmed ORR (95% CI), tumor response by IRC [4]: 4 (1-10) %
- Confirmed ORR (95% CI), tumor response by investigator [4]: 4 (1-10) %
- Progressive disease, tumor response by IRC [4]: 22%
- Progressive disease, tumor response by investigator [4]: 27%
- Stable disease, tumor response by IRC [4]: 66%
- Stable disease, tumor response by investigator [4]: 64%
- Confirmed ORR (95% CI), tumor response by IRC [5]: 3 (1-8) %
- Confirmed ORR (95% CI), tumor response by investigator [5]: 4 (1-9) %
- Progressive disease, tumor response by IRC [5]: 35%
- Progressive disease, tumor response by investigator [5]: 29%
- Stable disease, tumor response by IRC [5]: 57%
- Stable disease, tumor response by investigator [5]: 63%
- Deaths (second interim analysis of OS, of randomized patients): 55%
